Results taken from article PMC12140300, “Development of Carbon‐11 Labeled Pyrimidine Derivatives as Novel Positron Emission Tomography (PET) Agents Enabling Brain Sigma‐1 Receptor Imaging” (Advanced Science, 2025).

Tested on: σ1R
Experiment: NHP PET/MR imaging with kinetic modelling, baseline and self-blocking
Type: in vivo
Conditions: for VT, One tissue compartment model [1TCM] / VT, Two tissue compartment model [2TCM] / VT, Logan graphical method [T* = 40 min]: male NHP brain
Excerpt: Next, we conducted PET/MR imaging studies using [^11C]CNY‐01 in non‐human primates (NHP) to evaluate its safety and translational potential in large animals further. A 90‐minute dynamic PET scan with [^11C]CNY‐01 focusing on the head of a male rhesus monkey. We performed a full kinetic analysis with one‐ and two‐tissue compartment models (1TCM and 2TCM), as well as logan graphical analysis (LGA), using metabolite‐corrected arterial input function (AIF), similar to previous studies,^[ [44], [45] ^] to determine which model best suit kinetics of [^11C]CNY‐01. In most brain regions, 2TCM provided a better fit than 1TCM, as indicated by the Akaike information criterion (AIC) and model selection criterion (MSC) (Table 1). […] To test whether non‐parametric graphical approaches can be used for [^11C]CNY‐01, we performed LGA with an assumption of steady‐state time (T*) of 40 mins (Table 1). […] For voxel‐wise estimation of VT across the whole brain, we then used LGA (Figure 4A).
We also performed a self‐blocking scan for [^11C]CNY‐01, administering 0.5 mg kg^−1 of unlabeled CNY‐01 10 min before the radiotracer. The metabolism of the radiotracer in the blocking scan was similar to that of the baseline (Figure S6, Supporting Information). The radioactivity concentration was lower in arterial blood samples in the blocking scan compared to the baseline, while brain uptake was higher in the blocking scan (Figure S6, Supporting Information). […] The variation of the radiotracer plasma protein binding (fp) between baseline and blocking scan may explain our observation in a way similar to that of the previous study.^[ [46] ^] Nonetheless, due to this study's lack of fp data, the exact explanation for our observation remains to be determined further.
The PET/MR imaging protocol in non‐human primates (NHP) followed our previous work.^[ [55], [56] ^] A male rhesus macaque (8.55 kg) was anesthetized with an intramuscular injection of xylazine (0.5–2.0 mg kg^−1) and ketamine (10 mg kg^−1), followed by endotracheal intubation. V‐ and A‐lines were inserted, and anesthesia was maintained using isoflurane. [^11C] CNY‐01 was administered after antecubital catheterization, with an arterial line prepared for radiometabolite analysis. In the self‐blocking scan, the same animal (6.80 kg) was scanned with a 10‐min pre‐treatment of 0.5 mg kg^−1 unlabeled CNY‐01. PET/MR imaging data were acquired using a Siemens TIM‐Trio scanner (3T) equipped with a Siemens BrainPET insert module and an in‐house‐built 8‐channel head coil. The dynamic scan began, followed by administration of [^11C] CNY‐01 (5.1 mCi). The list mode data were reconstructed using the 3D ordinary Poisson expectation‐maximization algorithm (16 subsets and 6 iterations) with detector efficiency, decay, dead time, random coincidences, scatter, and attenuation corrections with gradually increasing time frams. All images were reconstructed into 153 slices with 256 × 256 pixels and 1.25‐mm isotropic voxel size. High‐resolution structural MRI scans were acquired by using a multi‐echo magnetization‐prepared rapid gradient echo (ME‐MPRAGE) sequence with parameters as follows: TR = 2400 ms; TE1/TE2/TE3/TE4 = 1.57/3.29/5.01/6.73 ms; inversion time = 1200 ms; flip angle = 9°; spatial resolution = 1 mm isotropic.
For macaque brain PET/MR imaging analysis, we applied the INIA19 Template^[ [57] ^] and NeuroMaps Atlas in accordance with our prior work.^[ [58] ^] In brief, reconstructed PET images were registered to the INIA19 Primate Brain Atlas^[ [57] ^] with the following processing steps^[ [59] ^]: The high‐resolution T1‐weighted MR image, co‐registered with the PET image, was first affine‐registered to the INIA19 atlas. By using the same transformation, dynamic PET data was registered to the atlas. A spatial smoothing with a 6‐mm FWHM Gaussian kernel was applied to PET images. Twenty ROIs determined in the INIA19 atlas were used to derive regional TACs. […]

[1] = NAc, 10-min pretreatment of unlabeled CNY-01 (0.5 mg kg^−1)
[2] = Occg, 10-min pretreatment of unlabeled CNY-01 (0.5 mg kg^−1)
[3] = Ofc, 10-min pretreatment of unlabeled CNY-01 (0.5 mg kg^−1)
[4] = PCC, 10-min pretreatment of unlabeled CNY-01 (0.5 mg kg^−1)
[5] = Putamen, 10-min pretreatment of unlabeled CNY-01 (0.5 mg kg^−1)
[6] = Sensory, 10-min pretreatment of unlabeled CNY-01 (0.5 mg kg^−1)
[7] = Thalamus, 10-min pretreatment of unlabeled CNY-01 (0.5 mg kg^−1)
[8] = VTA, 10-min pretreatment of unlabeled CNY-01 (0.5 mg kg^−1)
[9] = WB, 10-min pretreatment of unlabeled CNY-01 (0.5 mg kg^−1)
[10] = WM, 10-min pretreatment of unlabeled CNY-01 (0.5 mg kg^−1)

## Cc1nc(-c2ccc(O[11CH3])cc2)nc(OCCCN2CCCCC2)c1Cl [[^11C]CNY-01]
Motor, baseline
  VT, One tissue compartment model [1TCM]: 6.97 mL cm^−3
  VT, Two tissue compartment model [2TCM]: 8.88 mL cm^−3
[1]
  VT, Logan graphical method [T* = 40 min]: 33.22 ml/cm^3
  VT, Two tissue compartment model [2TCM]: 26.92 ml/cm^3
NAc, baseline
  VT, Logan graphical method [T* = 40 min]: 13.11 mL cm^−3
  VT, One tissue compartment model [1TCM]: 9.85 mL cm^−3
  VT, Two tissue compartment model [2TCM]: 11.85 mL cm^−3
NHP
  nonspecific binding in blockage experiments: high nonspecific binding
NHP, speculated from pharmacokinetic characteristics
  binding to target within the imaging timeframe: predominantly irreversible
[2]
  VT, Logan graphical method [T* = 40 min]: 12.96 ml/cm^3
  VT, Two tissue compartment model [2TCM]: 11.84 ml/cm^3
Occg, baseline
  VT, Logan graphical method [T* = 40 min]: 7.07 mL cm^−3
  VT, One tissue compartment model [1TCM]: 5.24 mL cm^−3
  VT, Two tissue compartment model [2TCM]: 6.28 mL cm^−3
[3]
  VT, Logan graphical method [T* = 40 min]: 20.65 ml/cm^3
  VT, Two tissue compartment model [2TCM]: 16.68 ml/cm^3
Ofc, baseline
  VT, Logan graphical method [T* = 40 min]: 9.72 mL cm^−3
  VT, One tissue compartment model [1TCM]: 7.31 mL cm^−3
  VT, Two tissue compartment model [2TCM]: 9.24 mL cm^−3
[4]
  VT, Logan graphical method [T* = 40 min]: 27.31 ml/cm^3
  VT, Two tissue compartment model [2TCM]: 23.16 ml/cm^3
PCC, baseline
  VT, Logan graphical method [T* = 40 min]: 12.38 mL cm^−3
  VT, One tissue compartment model [1TCM]: 9.29 mL cm^−3
  VT, Two tissue compartment model [2TCM]: 14.68 mL cm^−3
[5]
  VT, Logan graphical method [T* = 40 min]: 33.81 ml/cm^3
  VT, Two tissue compartment model [2TCM]: 27.99 ml/cm^3
Putamen, baseline
  VT, Logan graphical method [T* = 40 min]: 15.02 mL cm^−3
  VT, One tissue compartment model [1TCM]: 11.56 mL cm^−3
  VT, Two tissue compartment model [2TCM]: 15.75 mL cm^−3
[6]
  VT, Logan graphical method [T* = 40 min]: 19.24 ml/cm^3
  VT, Two tissue compartment model [2TCM]: 16.21 ml/cm^3
Sensory, baseline
  VT, Logan graphical method [T* = 40 min]: 8.75 mL cm^−3
  VT, One tissue compartment model [1TCM]: 6.73 mL cm^−3
  VT, Two tissue compartment model [2TCM]: 9.33 mL cm^−3
[7]
  VT, Logan graphical method [T* = 40 min]: 30.88 ml/cm^3
  VT, Two tissue compartment model [2TCM]: 25.02 ml/cm^3
Thalamus, baseline
  VT, Logan graphical method [T* = 40 min]: 15.50 mL cm^−3
  VT, One tissue compartment model [1TCM]: 10.94 mL cm^−3
  VT, Two tissue compartment model [2TCM]: 19.46 mL cm^−3
[8]
  VT, Logan graphical method [T* = 40 min]: 26.74 ml/cm^3
  VT, Two tissue compartment model [2TCM]: 19.47 ml/cm^3
VTA, baseline
  VT, Logan graphical method [T* = 40 min]: 12.11 mL cm^−3
  VT, One tissue compartment model [1TCM]: 8.25 mL cm^−3
  VT, Two tissue compartment model [2TCM]: 11.16 mL cm^−3
WB (whole brain), baseline
  VT, Two tissue compartment model [2TCM]: 10.35 mL cm^−3
[9]
  VT, Logan graphical method [T* = 40 min]: 20.75 ml/cm^3
  VT, Two tissue compartment model [2TCM]: 16.75 ml/cm^3
WB, baseline
  VT, Logan graphical method [T* = 40 min]: 9.82 mL cm^−3
  VT, One tissue compartment model [1TCM]: 7.44 mL cm^−3
WM (white matter), baseline
  VT, Two tissue compartment model [2TCM]: 15.00 mL cm^−3
[10]
  VT, Logan graphical method [T* = 40 min]: 25.98 ml/cm^3
  VT, Two tissue compartment model [2TCM]: 21.29 ml/cm^3
WM, baseline
  VT, Logan graphical method [T* = 40 min]: 11.98 mL cm^−3
  VT, One tissue compartment model [1TCM]: 9.00 mL cm^−3
